Source: US10202408B2, “Prodrugs and methods of use thereof” (Health Innovation Ventures B.V., priority 2012, dated 2019)
Entries after “also recorded” stand apart in the source; their conditions may differ.

How the values were obtained:
[1] = test system: 15% E coli NfsA-expressing H1299 xenografts; assay: Tumour growth delay, 15% E coli NfsA-expressing H1299 xenografts; format: in vivo, NIH-III mice; settings: for tumour growth delay: mixed HCT116 and H1299 xenografts, 15% E coli NfsA cells, single (or BID) intraperitoneal dose; for E coli NfsA mediated anti-tumour efficacy (mean tumour volume): single dose, 10, 22, 60 and 11 at 750, 422, 1330 and 1330 umol/kg
Description: (§1) Animals weighed 18-25 g at the time of tumour inoculation. Tumours were grown subcutaneously on the right flank of mice by inoculating cells grown in tissue culture (1×10^7 cells in 100 uL serum free α-MEM). Tumour sizes were monitored three times weekly using electronic callipers and treatments were initiated once tumour diameter reached ≥7 mm.
(§2) Tumour bearing mice were randomised into the appropriate treatment groups and tumour size and body weight recorded. Test compounds were formulated on the day of the experiment and kept in foil-wrapped tubes out of direct fluorescent light. If recruitment of animals occurred over multiple days, the drug stocks were aliquoted into tubes and frozen once at […] until required. Mice were treated with a single (or BID) dose of prodrug by intraperitoneal injection and thereafter tumour size and body weight was monitored every second day. Tumour volume was calculated as π (l×w×w)/6, where l is the major axis and w is the perpendicular minor axis. Animals were culled when they had reached the appropriate survival endpoint or when body weight loss exceeded 20% of the pre-treatment value.

[2] = test system: 15% E coli NfsA-expressing HCT116 xenografts; assay: Tumour growth delay, 15% E coli NfsA-expressing HCT116 xenografts; format: in vivo, NIH-III mice; settings: single dose; 10, 22 and 60 at 1000, 422 and 1330 umol/kg
Description: as §1, §2

[3] = test system: HCT116, H460, H1299 and SiHa wild type cancer cell lines; assay: Oxic versus anoxic low cell density IC50 assay, wild type cancer cell lines; format: cell-based, human; settings: 4 h anoxia during prodrug exposure versus oxic
Description: (§3) Compounds were subjected to testing, including low-cell density cytotoxicity assay. Cells (500 cells/well) were seeded in 96-well plates and exposed to prodrug for 4 h, washed, then left to grow for a further 5 days. The SRB assay was employed to determine IC50 values (concentration of prodrug required to inhibit proliferation by 50%). Parental HCT116 cells (HCT116 is a cell line derived from human colon cancer) and cells expressing the example nitroreductase gene nfsA from Escherichia coli were evaluated head-to-head. Parental H1299 cells (H1299 is a cell line derived from lung cancer) and cells expressing the example nitroreductase gene nfsA from Escherichia coli were evaluated head-to-head. Parental HCT116 cells and cells expressing human AKR1C3 were evaluated head-to-head. Parental H1299 cells and cells expressing human AKR1C3 were evaluated head-to-head. In a variation of these assays test compounds were assessed for their ability to give hypoxia-selective cell killing. Here wild type HCT116, H460 (H460 is a cell line derived from lung cancer), H1299 and SiHa cells (SiHa is a cell line derived from cervical cancer) were used in addition to HCT116 cells engineered to over express cytochrome P450 reductase (HCT116 POR), a human one-electron nitroreductase. Low-cell density cytotoxicity assays were performed as above under oxic conditions and compared to experiments where cells were shown 4 h of anoxia during the prodrug exposure period, before being washed free of prodrug and then left to grow for a further 5 days under oxic conditions, as above.

[4] = test system: HCT116 MCLs over-expressing AKR1C3; assay: Multicellular layer (MCL) clonogenic assay, HCT116 wild type versus AKR1C3 over-expressing MCLs; format: cell-based, human
Description: (§4) In parallel, a three dimensional high-cell density multi-cellular layer (MCL) clonogenic assay was performed. 1×10^6 cells of either 100% HCT-116^WT or containing 97% WT with a minor 3% HCT-116^NTR cell population were seeded into a collagen-coated Teflon microporous membrane and left to grow for 3 days. MCLs were then exposed to prodrug for 5 h. After treatment, MCLs were enzyme dissociated, diluted in fresh medium and plated to determine clonogenic survival. To discriminate clonogenic activator (NTR+) from target (NTR−) colonies, cells were plated in non-selective medium (total cells) and medium containing 1 μM puromycin (activator cells). Colonies were grown for 10 days before staining. Colonies containing >50 cells were counted. A variation of this assay was also used to assess for evidence of AKR1C3-dependent cytotoxicity. Here either 100% HCT-116W^T or 100% HCT-116^AKR1C3 cells were seeded to provide MCLs that were then exposed to prodrug.

[5] = test system: bacterial nitroreductases from the NfsA and NfsB families; assay: GFP SOS assay with nitroreductase over-expression library; format: cell-based, E. coli strain SOS-R4; settings: 55 candidate nitroreductase library, 6 h challenge
Excerpt: The method employed the over-expression of a candidate nitroreductase gene from plasmid pUCX in an SOS reporter strain, as first described in Prosser et al., 2010, Biochem Pharmacol 79, 678-687. In order to enhance the sensitivity of the SOS reporter system, an sfiA::GFP reporter construct was integrated into a CDF-based plasmid (which contains a compatible origin of replication with pUCX) to give the pANODuet reporter plasmid for GFP screening. In addition, nfsA, nfsB, azoR, and nemA genes were deleted to minimise background metabolism, and the tolC gene deleted to minimise efflux of test compounds; this strain was designated SOS-R3. Further improvements were obtained by deleting the mdaB, ycaK, and yieF genes to minimise background metabolism, and by introducing transcriptional terminators to the pANODUET reporter plasmid. This final reporter strain was designated SOS-R4.
Stored glycerols of the 55-membered nitroreductase library in SOS-R4 were thawed and used to inoculate overnight cultures (Lysogeny Broth (LB) amended with 100 μg ml^−1 Ampicillin, 50 μg ml^−1 Spectinomycin, 0.4% glucose) that were incubated at 30° C., 200 rpm for 16 h. The next morning the GFP-SOS assay was commenced by inoculation of 195 μl fresh assay media (LB+100 μg ml^−1 Ampicillin, 50 μg ml^−1 Spectinomycin, 0.2% glucose, 50 μM IPTG) with 15 μl of overnight culture in individual wells of a 96-well plate. Plates were incubated at 30° C., 200 rpm for 2.5 h (pre-challenge period), following which cultures were diluted 1:2 by splitting 50:50 into fresh assay media (+DMSO to 0.5% final concentration) and fresh challenge media (assay media+drug to desired concentration, DMSO to 0.5% final concentration) to final volumes of 80 μl apiece in duplicate on a 384-well plate. Plates were incubated at 30° C., 200 rpm for 6 h (challenge period). GFP expression was determined at excitation 488 nm/emission 509 nm. Turbidity was determined by OD600 and fluorescence data from any replicates not found to be within 15% of the median culture turbidity were discarded.

[6] = test system: HCT116 MCLs with 3% E coli NfsA-expressing cells; assay: MCL clonogenic bystander assay, HCT116 MCLs seeded with 3% E coli NfsA-expressing cells; format: cell-based, human; settings: 97% wild type HCT116, 3% E coli NfsA-expressing cells
Description: as §4

[7] = test system: H1299 cells engineered to over-express E coli NfsA; assay: Low cell density IC50 (SRB) assay, H1299 wild type versus E coli NfsA over-expressing cells; format: cell-based, human
Description: as §3

[8] = test system: HCT116 cells engineered to over-express human aldo-ketoreductase 1C3 (AKR1C3); assay: Low cell density IC50 (SRB) assay, HCT116 wild type versus AKR1C3 over-expressing cells; format: cell-based; settings: 4 h exposure
Description: as §3

[9] = test system: HCT116 cells engineered to over-express E coli NfsA; assay: Low cell density IC50 (SRB) assay, HCT116 wild type versus E coli NfsA over-expressing cells; format: cell-based, human
Description: as §3

[10] = test system: bacterial nitroreductases from the NfsA and NfsB families; assay: GFP SOS assay with nitroreductase over-expression library; format: cell-based, E. coli strain SOS-R4; settings: single and poly mutated variants of NfsA_Ec, single-mutated variant of NfsA_Bs
[11] = test system: HCT116 POR cell line (over-expressing Cytochrome P450 reductase); assay: Oxic versus anoxic low cell density IC50 assay, HCT116 POR cells; format: cell-based, human; settings: HCT116 POR cell line compared with wild type
Description: as §3, with “Low-cell density cytotoxicity assays were performed as above under oxic conditions and compared to experiments where cells were shown 4 h of anoxia during the prodrug exposure period, before being washed free of prodrug and then left to grow for a further 5 days under oxic conditions, as above.” left out

Compound: CN(CCOP(=O)(O)O)C(=O)c1cc(N(CCBr)CCBr)c(S(C)(=O)=O)cc1[N+](=O)[O-] [compound 10, 2-(5-(bis(2-bromoethyl)amino)-N-methyl-4-(methylsulfonyl)-2-nitrobenzamido)ethyl dihydrogen phosphate]
- tumour growth delay [1]: profound tumour growth delay
- E coli NfsA mediated anti-tumour efficacy (mean tumour volume) [1]: display significant E coli NfsA mediated anti-tumour efficacy
- E coli NfsA mediated anti-tumour efficacy (mean tumour volume) [2]: display significant E coli NfsA mediated anti-tumour efficacy

Compound: CN(CCO)C(=O)c1cc(N(CCBr)CCBr)c(S(C)(=O)=O)cc1[N+](=O)[O-] [compound 14, 5-(bis(2-bromoethyl)amino)-N-(2-hydroxyethyl)-N-methyl-4-(methylsulfonyl)-2-nitrobenzamide]
- hypoxia-dependent cytotoxicity [3]: increased cytotoxicity in cells under hypoxia
- AKR1C3-dependent clonogenic cell kill in MCLs [4]: do not cause AKR1C3-dependant cytotoxicity
- metabolism by bacterial nitroreductases (SOS response) [5]: substrates for multiple wild type and mutant bacterial nitroreductases from the NfsA and NfsB families
- bystander cell killing in MCLs [6]: display evidence of metabolism by the 3% E coli NfsA-expressing cells with bystander cell killing of the 97% non-expressing neighbour cells
- E coli NfsA-mediated cytotoxicity (IC50 wild type versus NfsA) [7]: produce E coli NfsA-mediated cytotoxicity
- AKR1C3-mediated cytotoxicity (IC50 wild type versus AKR1C3) [8]: less susceptible to AKR1C3-mediated cytotoxicity than PR-104A
- E coli NfsA-mediated cytotoxicity (IC50 wild type versus NfsA) [9]: produce E coli NfsA-mediated cytotoxicity
- activity with mutated nitroreductase variants [10]: demonstrated
- Hypoxic Cytotoxicity Ratios (HCR) [11]: Larger HCRs; also recorded: The degree of this effect was increased

Compound: CCS(=O)(=O)c1cc([N+](=O)[O-])c(C(=O)N(C)CCO)cc1N(CCBr)CCBr [compound 18, 5-(bis(2-bromoethyl)amino)-4-(ethylsulfonyl)-N-(2-hydroxyethyl)-N-methyl-2-nitrobenzamide]
- hypoxia-dependent cytotoxicity [3]: increased cytotoxicity in cells under hypoxia
- AKR1C3-dependent clonogenic cell kill in MCLs [4]: do not cause AKR1C3-dependant cytotoxicity
- metabolism by bacterial nitroreductases (SOS response) [5]: substrates for multiple wild type and mutant bacterial nitroreductases from the NfsA and NfsB families
- bystander cell killing in MCLs [6]: display evidence of metabolism by the 3% E coli NfsA-expressing cells with bystander cell killing of the 97% non-expressing neighbour cells
- E coli NfsA-mediated cytotoxicity (IC50 wild type versus NfsA) [7]: produce E coli NfsA-mediated cytotoxicity
- AKR1C3-mediated cytotoxicity (IC50 wild type versus AKR1C3) [8]: less susceptible to AKR1C3-mediated cytotoxicity than PR-104A
- E coli NfsA-mediated cytotoxicity (IC50 wild type versus NfsA) [9]: produce E coli NfsA-mediated cytotoxicity
- activity with mutated nitroreductase variants [10]: demonstrated

Compound: CS(=O)(=O)OCCN(CCBr)c1ccc([N+](=O)[O-])cc1C(=O)NCCOP(=O)(O)O [compound 60, 2-((2-bromoethyl)(4-nitro-2-((2-(phosphonooxy)ethyl)carbamoyl)phenyl)amino)ethyl methanesulfonate]
- tumour growth delay [1]: profound tumour growth delay
- E coli NfsA mediated anti-tumour efficacy (mean tumour volume) [1]: display significant E coli NfsA mediated anti-tumour efficacy
- E coli NfsA mediated anti-tumour efficacy (mean tumour volume) [2]: display significant E coli NfsA mediated anti-tumour efficacy

Compound: CS(=O)(=O)c1cc([N+](=O)[O-])c(C(=O)NCCO)cc1N(CCBr)CCBr [compound 301, 5-(bis(2-bromoethyl)amino)-N-(2-hydroxyethyl)-4-(methylsulfonyl)-2-nitrobenzamide]
- hypoxia-dependent cytotoxicity [3]: increased cytotoxicity in cells under hypoxia
